The results in this text go back to patent publication US20190119200A1, “TERTIARY AMIDES AND METHOD OF USE” (AbbVie Inc., priority 2016, published 2019).

By IC50 is commonly meant the concentration at which inhibition is half-maximal.

Format in all cases: cell-based
The target in experiment [1] is T1, LPAR1 (Homo sapiens, UniProt Q92633).
T1 construct: host or cells: U2OS
Kind of experiment: LPAR1 FLIPR Assay. The following applies: U2OS cells stably expressing LPAR1, LPA (EC80), Calcium 6 FLIPR dye; for Emax: read-out: Maximum Inhibition. Summed up:
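U2OS cells stably expressing LPAR1 were loaded with Calcium 6 dye for 2 h at 37° C, preincubated 3 min with compound (11-point 3-fold series), then stimulated with LPA at EC80. Fluorescence at 515-575 nm was recorded by FLIPR; IC50 came from four-parameter logistic fits of ratio data.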

Experiment [2] concerns LPA-induced MCP-1 in NRK-49F cells. In words: LPA-induced MCP-1 AlphaLISA assay. To be noted: Rattus norvegicus, final LPA 10 μM, 7 hours; for Emax: read-out: Maximum Inhibition. Summed up:
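NRK-49F rat fibroblasts, serum-starved overnight, pretreated with compound for 30 min at 37 °C (1% DMSO final), then stimulated with 10 μM LPA final. MCP-1 in the supernatant was measured by mouse/rat CCL2 AlphaLISA. IC50 values came from four-parameter logistic fits of the ratio data.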
(In general: Alpha assays give light when donor and acceptor beads are brought close together.)

The target in experiment [3] is T1, LPAR1. In words: IP-One HTRF Assay. The following applies: U2OS cells stably expressing LPAR1, LPA stimulation, IP-One Tb HTRF kit; for Emax: read-out: Maximum Inhibition. On the procedure:
U2OS cells stably expressing LPAR1 (Life Technologies #K1519A) were plated at 20000 cells/well in growth medium (McCoy's 5A(Life Technologies #16600-082)) with 10% dFBS (Life Technologies #26400-036), 0.1 mM non-essential amino acids, 25 mM HEPES, 1 mM sodium pyruvate, 1% penicillin/streptomycin, 50 μg/mL hygromycin, and 100 μg/mL Geneticin® in tissue culture treated 384-well white plates (Greiner #781080) in humidified 5% CO2 at 37° C. overnight. On the day of the assay, culture medium was replaced with 30 μL/well of McCoy's 5A with 0.1% BSA. Cells were incubated in humidified 5% CO2 at 37° C. for 3 more hours. Compounds were 3-fold serial diluted from 2 mM for 11-points using dimethyl sulfoxide. 1 μL of compound in DMSO was diluted in 50 μL stimulation buffer from an IP-One Tb HTRF kit (Cisbio #62IPAPEB) immediately before assay. 15 μL/well of 1.33× compound in stimulation buffer was added to cells after removal of culture medium. After 20 minutes of incubation at 37° C., 5 μL/well of 8 μM LPA diluted in stimulation buffer with 0.1% fatty acid free BSA was added to cells. […]. To EC100 wells were added 4×20 μM LPA. To the cells were added 5 μL/well IP1-d2 conjugate and 5 μLwell IP1-K antibody after 2 hours of incubation at 37° C. Cells were incubated at room temperature for 1 hour (protected from light). The plate was then read at 665 nm and 615 nm using an EnVision® Multilabel Plate Reader. IC50 values were calculated from curve fits of the ratio data using a four-parameter logistic Hill equation (Assay Explorer 3.3 Client).

T1 sequence (Q92633 whole entry): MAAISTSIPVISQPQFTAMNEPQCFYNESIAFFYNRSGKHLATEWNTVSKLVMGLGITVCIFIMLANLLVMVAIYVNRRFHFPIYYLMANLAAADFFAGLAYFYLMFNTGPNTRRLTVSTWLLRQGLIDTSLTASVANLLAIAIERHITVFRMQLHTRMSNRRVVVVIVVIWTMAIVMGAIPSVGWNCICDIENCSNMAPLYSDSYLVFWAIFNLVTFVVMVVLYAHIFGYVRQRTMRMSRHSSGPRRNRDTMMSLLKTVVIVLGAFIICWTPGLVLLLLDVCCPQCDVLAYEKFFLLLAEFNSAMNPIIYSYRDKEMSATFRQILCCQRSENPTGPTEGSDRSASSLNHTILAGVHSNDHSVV

Take `COc1cc(C(=O)N(CCCc2ccccc2)CCCC(C)(C)C(=O)O)cc(OC)c1C` [Example 57, 5-[(3,5-dimethoxy-4-methylbenzoyl)(3-phenylpropyl)amino]-2,2-dimethylpentanoic Acid]: the IC50 at LPAR1 [1] was 0.035 µM; in experiment [2] it was 0.039 µM; on LPAR1 [3], 0.062 µM. The Emax at LPAR1 [1] was 100%; in experiment [2], 97%; at LPAR1 [3] it was 95%.

Turning to `COc1cc(C(=O)N(CCCCC(=O)O)CCCc2cccc(Cl)c2)cc(OC)c1C` [Example 38, 5-{[3-(3-chlorophenyl)propyl](3,5-dimethoxy-4-methylbenzoyl)amino}pentanoic Acid], the IC50 on LPAR1 [1] is 0.014 µM; in experiment [2] it was 0.108 µM; at LPAR1 [3] it was 0.194 µM. Further, the Emax was 99% at LPAR1 [1], 91% in experiment [2] and 90% on LPAR1 [3].

In the case of `COc1cc(C(=O)N(CCCCC(=O)O)CCCc2ccccc2)cc(OC)c1OC` [Example 10, 5-[(3-phenylpropyl)(3,4,5-trimethoxybenzoyl)amino]pentanoic Acid], the IC50 on LPAR1 [1] turned out to be 0.064 µM; in experiment [2], 4.84 µM; against LPAR1 [3] it was 0.333 µM. Besides, the Emax at LPAR1 [1] came out at 92%; in experiment [2], 70%; at LPAR1 [3], 77%.

Regarding `COc1cc(C(=O)N(CCCc2cccc(Cl)c2)CCSCC(=O)O)cc(OC)c1C` [Example 122, [(2-{[3-(3-chlorophenyl)propyl](3,5-dimethoxy-4-methylbenzoyl)amino}ethyl)sulfanyl]acetic Acid], the IC50 on LPAR1 [1] is 0.01 µM; in experiment [2], 0.419 µM; at LPAR1 [3], 0.134 µM. Besides, the Emax at LPAR1 [1] turned out to be 95%; in experiment [2] it was 97%; at LPAR1 [3], 78%.

Turning to `COc1cc(C(=O)N(CCCCC(=O)O)CCCc2ccc(Cl)o2)cc(OC)c1C` [Example 185, 5-{[3-(5-chlorofuran-2-yl)propyl](3,5-dimethoxy-4-methylbenzoyl)amino}pentanoic Acid], the IC50 on LPAR1 [1] was 0.013 µM; in experiment [2] it was 0.536 µM; against LPAR1 [3], 0.325 µM. Moreover, the Emax was 91% at LPAR1 [1], 84% in experiment [2] and 73% at LPAR1 [3].

With `COc1cc(C(=O)N(CCCCC(=O)O)CCCc2ccccc2)cc(OC)c1C` [Example 4, 5-[(3,5-dimethoxy-4-methylbenzoyl)(3-phenylpropyl)amino]pentanoic Acid], the results for the IC50 (on LPAR1 [1]; in experiment [2]; on LPAR1 [3]) were 0.014 µM, 0.188 µM and 0.115 µM, respectively. The figures for the Emax (on LPAR1 [1]; in experiment [2]; at LPAR1 [3]) were 98%, 91% and 93%, respectively.

Turning to `COc1cc(C(=O)N(CCCc2ccccc2)CCSC(C)CC(=O)O)cc(OC)c1C` (stereo not drawn) [Example 62, 3-({2-[(3,5-dimethoxy-4-methylbenzoyl)(3-phenylpropyl)amino]ethyl}sulfanyl)butanoic Acid], the IC50 at LPAR1 [1] worked out at 0.029 µM; in experiment [2], 0.184 µM; on LPAR1 [3], 0.291 µM. The Emax came out at 97% on LPAR1 [1], 94% in experiment [2] and 75% at LPAR1 [3].

`COc1cc(C(=O)N(CCCc2ccccc2)CCSCCC(=O)O)cc(OC)c1C` [Example 60, 3-({2-[(3,5-dimethoxy-4-methylbenzoyl)(3-phenylpropyl)amino]ethyl}sulfanyl)propanoic Acid]: the IC50 came out at 0.02 µM on LPAR1 [1], 1.55 µM in experiment [2] and 0.208 µM on LPAR1 [3]. Further, the values for the Emax (on LPAR1 [1]; in experiment [2]; at LPAR1 [3]) were 95%, 84% and 82%, respectively.

As to `COc1cc(C(=O)N(CCCCC(=O)O)CCCc2cccc(F)c2)cc(OC)c1C` [Example 33, 5-{(3,5-dimethoxy-4-methylbenzoyl)[3-(3-fluorophenyl)propyl]amino}pentanoic Acid], the IC50 on LPAR1 [1] was 0.019 µM; in experiment [2], 0.215 µM; at LPAR1 [3] it was 0.166 µM. The Emax on LPAR1 [1] came to 99%; in experiment [2], 84%; at LPAR1 [3], 76%.

`COc1cc(C(=O)N(CCCc2ccccc2)CCSCC(=O)O)cc(OC)c1C` [Example 44, ({2-[(3,5-dimethoxy-4-methylbenzoyl)(3-phenylpropyl)amino]ethyl}sulfanyl)acetic Acid]: the IC50 at LPAR1 [1] is 0.008 µM; in experiment [2], 0.41 µM; against LPAR1 [3], 0.223 µM. Further, the figures for the Emax (on LPAR1 [1]; in experiment [2]; on LPAR1 [3]) were 96%, 91% and 80%, respectively.

As for `COc1cc(C(=O)N(CCCc2ccccc2)CCCC(C)(O)C(=O)O)cc(OC)c1C` (stereo not drawn) [Example 155, 5-[(3,5-dimethoxy-4-methylbenzoyl)(3-phenylpropyl)amino]-2-hydroxy-2-methylpentanoic Acid], the IC50 on LPAR1 [1] is 0.027 µM; in experiment [2], 0.763 µM; at LPAR1 [3], 0.663 µM. Also, the Emax at LPAR1 [1] is 90%; in experiment [2], 81%; at LPAR1 [3], 83%.

In the case of `COc1cc(C(=O)N(CCCCC(=O)O)CCCc2ccccc2)cc(OC)c1C1CC1` [Example 35, 5-[(4-cyclopropyl-3,5-dimethoxybenzoyl)(3-phenylpropyl)amino]pentanoic Acid], the IC50 amounted to 0.032 µM on LPAR1 [1], 0.107 µM in experiment [2] and 0.059 µM at LPAR1 [3]. In addition, the results for the Emax (at LPAR1 [1]; in experiment [2]; on LPAR1 [3]) were 98%, 92% and 94%, respectively.

Turning to `COc1cc(C(=O)N(CCCc2ccccc2)CCOCP(=O)(O)O)cc(OC)c1C` [Example 50, ({2-[(3,5-dimethoxy-4-methylbenzoyl)(3-phenylpropyl)amino]ethoxy}methyl)phosphonic Acid], the IC50 at LPAR1 [1] was found to be 0.003 µM; in experiment [2] it was 0.002 µM; against LPAR1 [3] it was 0.003 µM. For the same compound, the values for the Emax (at LPAR1 [1]; in experiment [2]; on LPAR1 [3]) were 101%, 98% and 85%, respectively.

`COc1cc(C(=O)N(CCCc2ccc(C)o2)CCSCC(=O)O)cc(OC)c1C` [Example 132, [(2-{(3,5-dimethoxy-4-methylbenzoyl)[3-(5-methylfuran-2-yl)propyl]amino}ethyl)sulfanyl]acetic Acid]: the IC50 is 0.01 µM on LPAR1 [1], 0.783 µM in experiment [2] and 0.22 µM against LPAR1 [3]. For the same compound, the Emax on LPAR1 [1] was determined as 86%; in experiment [2] it was 80%; at LPAR1 [3] it was 80%.

Consider `COc1cc(C(=O)N(CCCc2cccc(F)c2)CCOCC(=O)O)cc(OC)c1C` [Example 129, (2-{(3,5-dimethoxy-4-methylbenzoyl)[3-(3-fluorophenyl)propyl]amino}ethoxy)acetic Acid], for which the IC50 on LPAR1 [1] is 0.02 µM; in experiment [2], 0.968 µM; on LPAR1 [3], 1.31 µM. Also, the results for the Emax (on LPAR1 [1]; in experiment [2]; at LPAR1 [3]) were 93%, 90% and 96%, respectively.

`COc1cc(C(=O)N(CCCc2ccccc2Cl)CCOCC(=O)O)cc(OC)c1C` [Example 131, (2-{[3-(2-chlorophenyl)propyl](3,5-dimethoxy-4-methylbenzoyl)amino}ethoxy)acetic Acid]: the IC50 was 0.021 µM at LPAR1 [1], 1.73 µM in experiment [2] and 1.48 µM on LPAR1 [3]. Also, the Emax on LPAR1 [1] was determined as 86%; in experiment [2] it was 71%; on LPAR1 [3] it was 101%.

Turning to `COc1cc(C(=O)N(CCCc2ccccc2)CCOCC(=O)NS(C)(=O)=O)cc(OC)c1C` [Example 157, N-(2-{2-[(methanesulfonyl)amino]-2-oxoethoxy}ethyl)-3,5-dimethoxy-4-methyl-N-(3-phenylpropyl)benzamide], the IC50 at LPAR1 [1] was determined as 0.016 µM; in experiment [2], 0.46 µM; at LPAR1 [3], 0.92 µM. Moreover, the Emax at LPAR1 [1] turned out to be 92%; in experiment [2] it was 77%; at LPAR1 [3] it was 75%.

Turning to `COc1cc(C(=O)N(CCCc2ccccc2)CCOCC(=O)O)cc(OC)c1C` [Example 6, {2-[(3,5-dimethoxy-4-methylbenzoyl)(3-phenylpropyl)amino]ethoxy}acetic Acid], the IC50 turned out to be 0.011 µM at LPAR1 [1], 0.723 µM in experiment [2] and 0.183 µM on LPAR1 [3]. Moreover, the Emax on LPAR1 [1] is 94%; in experiment [2] it was 80%; on LPAR1 [3] it was 97%.
